Data published in patent publication US20060030585A1, “Tricyclic delta-opioid modulators” (priority 2004, published 2006).
“And” between values parts separate entries of the source, which are not always exact repeats. Equal entries are not always repeated. Where two headings read alike, the source gives them in different places.

How the values were obtained:
[1] = target: T1, delta opioid receptor (NG108-15 cell membranes) (Mus musculus, UniProt P32300); assay: [35S]GTPγS binding assay in NG108-15 cell membranes (delta opioid); type: biochemical; conditions: agonist-stimulated [35S]GTPγS binding
T1 construct: NG108-15 cell membranes were purchased from Applied Cell Sciences (Rockville, Md.); host or cells: NG108-15 cell membranes (purchased)
T1 sequence (P32300 whole entry): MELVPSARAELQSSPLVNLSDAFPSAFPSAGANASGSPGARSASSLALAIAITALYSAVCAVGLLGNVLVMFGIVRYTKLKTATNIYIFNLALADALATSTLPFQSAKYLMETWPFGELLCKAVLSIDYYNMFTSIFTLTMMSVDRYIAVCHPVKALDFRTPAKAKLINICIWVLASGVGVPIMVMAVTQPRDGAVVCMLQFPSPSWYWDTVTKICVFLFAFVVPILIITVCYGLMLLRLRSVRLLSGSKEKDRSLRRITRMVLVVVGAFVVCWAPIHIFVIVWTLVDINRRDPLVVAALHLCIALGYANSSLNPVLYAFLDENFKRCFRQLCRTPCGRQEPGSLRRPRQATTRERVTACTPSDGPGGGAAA
Procedure: [^35S]GTPγS Binding Assay in NG108-15 Cell Membranes (delta opioid)
Methods: NG108-15 cell membranes were purchased from Applied Cell Sciences (Rockville, Md.). 8 mg/mL of membrane protein suspended in 10 mM TRIS-HCl pH 7.2, 2 mM EDTA, 10% sucrose. Membranes were maintained at 4-8° C. A 1 mL volume of membranes was added into 10 mL cold binding assay buffer. The assay buffer contained 50 mM Tris, pH 7.6, 5 mM MgCl2, 100 mM NaCl, 1 mM DTT and 1 mM EGTA. The membrane suspension was homogenized twice with a Polytron, and centrifuged at 3000 rpm for 10 min. The supernatant was then centrifuged at 18,000 rpm for 20 min. Ten mL assay buffer was added into the pellet containing tube. The pellet and buffer were mixed with a Polytron.
Incubation procedure: The pellet membranes (75 μg/mL) were preincubated with SPA (10 mg/mL) at 25° C. for 45 min in the assay buffer. […] GTPγS in the same Tris buffer containing 100 μM GDP in total volume of 200 μL. Increasing concentrations of receptor agonists were used to stimulate [35S]-GTPγS binding. The basal binding was tested in the absence of agonists and non-specific binding was tested in the presence of 10 μM unlabeled GTPγS. The data were analyzed on a Packard Top Count.
% of Basal=(stimulated−non specific)*100/(basal−non specific). EC50 value values were calculated using GraphPad Prism.

delta opioid receptor = delta opioid receptor (Rattus norvegicus, UniProt P33533); assay: Rat brain delta opioid receptor binding assay ([3H]DPDPE); conditions: Rat delta opioid receptor binding constant, rat forebrain membranes, ~4 nM [3H]DPDPE
delta opioid receptor, sequence (P33533 whole entry): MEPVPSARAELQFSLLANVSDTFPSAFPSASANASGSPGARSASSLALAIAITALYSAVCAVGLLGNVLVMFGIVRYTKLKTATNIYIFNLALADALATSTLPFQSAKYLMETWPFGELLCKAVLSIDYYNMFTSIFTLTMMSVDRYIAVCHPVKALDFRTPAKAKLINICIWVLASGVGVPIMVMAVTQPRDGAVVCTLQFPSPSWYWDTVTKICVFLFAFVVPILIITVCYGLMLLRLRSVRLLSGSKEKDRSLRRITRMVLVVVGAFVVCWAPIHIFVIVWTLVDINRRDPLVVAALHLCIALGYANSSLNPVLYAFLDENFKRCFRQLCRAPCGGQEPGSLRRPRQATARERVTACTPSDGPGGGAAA
Procedure: Rat Brain Delta Opioid Receptor Binding Assay
Procedure: Male, Sprague Dawley rats (150-250 g, VAF, Charles River, Kingston, N.Y.) were killed by CO2, and their brains removed and placed immediately in ice cold Tris HCl buffer (50 mM, pH 7.4). The forebrains were separated from the remainder of the brain by a coronal transection, beginning dorsally at the colliculi and passing ventrally through the midbrain-pontine junction. After dissection, the forebrains were homogenized in Tris buffer in a Teflon®-glass homogenizer. The homogenate was diluted to a concentration of 1 g of forebrain tissue per 80 mL Tris and centrifuged at 39,000×g for 10 min. The pellet was resuspended in the same volume of Tris buffer containing 5 mM MgCl2 with several brief pulses from a Polytron homogenizer. This particulate preparation was used for the delta opioid binding assays. Following incubation with the delta selective peptide ligand ˜4 nM [^3H]DPDPE at 25° C. for 2.5 h in a 96-well plate with total volume of 1 mL, the plate contents were filtered through Wallac filtermat B sheets on a Tomtec 96-well harvester. The filters were rinsed three times with 2 mL of 10 mM HEPES (pH 7.4), and dried in a 650 W microwave oven for 1.75 min twice. To each sample area 2×50 μL of Betaplate Scint scintillation fluid (LKB) was added and the radioactivity quantified on a LKB (Wallac) 1205 BetaPlate liquid scintillation counter.
(§1) Analysis: The data from the scintillation counter were used to calculate either the % inhibition compared to control binding (when only a single concentration of test compound was evaluated) or a Ki value (when a range of concentrations was tested). Percent inhibition was calculated as: [(total dpm-test compound dpm)/(total dpm-nonspecific dpm)]*100. Kd and Ki values were calculated using GraphPad PRISM data analysis program.

mu opioid receptor = mu opioid receptor (Rattus norvegicus, UniProt P33535); assay: Rat brain mu opioid receptor binding assay ([3H]DAMGO); conditions: Rat mu opioid receptor binding constant, rat forebrain membranes, ~0.8 nM [3H]DAMGO
mu opioid receptor, sequence (P33535 whole entry): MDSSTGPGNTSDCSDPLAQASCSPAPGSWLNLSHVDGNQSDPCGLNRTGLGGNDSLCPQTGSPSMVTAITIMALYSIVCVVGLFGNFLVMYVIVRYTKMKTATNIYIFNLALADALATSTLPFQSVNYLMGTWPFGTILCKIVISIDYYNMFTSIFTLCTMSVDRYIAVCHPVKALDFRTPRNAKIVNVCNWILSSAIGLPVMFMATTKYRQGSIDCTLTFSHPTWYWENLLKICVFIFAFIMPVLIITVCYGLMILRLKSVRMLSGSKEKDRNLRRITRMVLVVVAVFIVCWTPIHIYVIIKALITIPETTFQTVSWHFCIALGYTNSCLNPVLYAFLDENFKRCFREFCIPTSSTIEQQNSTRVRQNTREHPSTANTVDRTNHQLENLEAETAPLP
Procedure: Rat Brain Mu Opioid Receptor Binding Assay
Procedure: Male, Sprague Dawley rats (150-250 g, VAF, Charles River, Kingston, N.Y.) were killed by CO2, and their brains removed and placed immediately in ice cold Tris HCl buffer (50 mM, pH 7.4). The forebrains were separated from the remainder of the brain by a coronal transection, beginning dorsally at the colliculi and passing ventrally through the midbrain-pontine junction. After dissection, the forebrains were homogenized in Tris buffer in a Teflon®-glass homogenizer. The homogenate was diluted to a concentration of 1 g of forebrain tissue per 80 mL Tris and centrifuged at 39,000×g for 10 min. The pellet was resuspended in the same volume of Tris buffer containing 5 mM MgCl2 with several brief pulses from a Polytron homogenizer. This particulate preparation was used for the delta opioid binding assays.
as §1, with “concentrations” for “concentrations was”

[2] = NG108-15 cell membranes, read-out: DOR GTPγS EC50
[3] = DOR GTPγS EC50, NG108-15 cell membranes

SMILES	EC50 [1, 2]	Ki (delta opioid receptor; read-out: DOR Ki)	Ki (mu opioid receptor; read-out: MOR Ki)	EC50 [1, 3]	Ki (delta opioid receptor; DOR Ki)	Ki (mu opioid receptor; MOR Ki)
COc1cccc2c1Oc1cc(-c3ccccc3NC(C)=O)ccc1C2=C1CC2CCC(C1)N2 [Cpd 108]	117 nM	33.9 nM	426 nM			
c1ccc2c(c1)Oc1cc(-c3nnn[nH]3)ccc1C2=C1CC2CCC(C1)N2 [Cpd 1, 3-[3-(1H-Tetrazol-5-ly)-xanthen-9-ylidene]-8-aza-bicyclo[3.2.1]octane]				189 nM and 70.3 nM	1.99 nM	637 nM
COCCN(C)C(=O)c1ccc2c(c1)Oc1ccccc1C2=C1CC2CCC(C1)N2 [Cpd 7]				173 nM	7.63 nM	1810 nM
S=c1[nH]c(-c2ccc3c(c2)Oc2ccccc2C3=C2CC3CCC(C2)N3)no1 [Cpd 94]	126 nM	0.04 nM	219 nM			
O=c1[nH]c(-c2ccc3c(c2)Oc2ccccc2C3=C2CC3CCC(C2)N3)no1 [Cpd 91]	72.2 nM	0.76 nM	> 10000 nM			
O=c1[nH]c(-c2ccc3c(c2)Oc2ccccc2C3=C2CC3CCC(C2)N3)ns1 [Cpd 8, 3-[9-(8-Aza-bicyclo[3.2.1]oct-3-ylidene)-9H-xanthen-3-yl]-4H-[1,2,4]thiadiazol-5-one]				359 nM	10.8 nM	1080 nM
Cc1cccc(C)c1OCC(C)NC(=O)c1ccc2c(c1)Oc1ccccc1C2=C1CC2CCC(C1)N2 (stereo not shown) [Cpd 13]	641 nM		2920 nM		23.6 nM	
COc1cccc2c1Oc1cc(-c3nnn[nH]3)ccc1C2=C1CC2CCC(C1)N2 [Cpd 82]	88.4 nM	5.6 nM	307 nM			
S=c1[nH]c(-c2ccc3c(c2)Oc2ccccc2C3=C2CC3CCC(C2)N3)no1 [Cpd 93]	631 nM	0.37 nM	3740 nM			
O=C(NCc1cccc(F)c1)c1ccc2c(c1)Oc1ccccc1C2=C1CC2CCC(C1)N2 [Cpd 11]	209 nM	18.5 nM	739 nM			
O=c1[nH]c(-c2ccc3c(c2)Oc2ccccc2C3=C2CC3CCC(C2)N3)no1 [Cpd 92]	102 nM	0.07 nM	502 nM			
CC(=O)Nc1ccccc1-c1ccc2c(c1)Oc1ccccc1C2=C1CC2CCC(C1)N2 [Cpd 2, N-{2-[9-(8-Aza-bicyclo[3.2.1]oct-3-ylidene)-9H-xanthen-3-yl]-phenyl}-aceta-mide]				394 nM	4.36 nM	1140 nM
COc1cccc2c1Oc1cc(-c3cccnc3)ccc1C2=C1CC2CCC(C1)N2 [Cpd 71]	1940 nM	5.7 nM	1140 nM			
c1ccc2c(c1)Sc1cc(-c3nnn[nH]3)ccc1C2=C1C[C@H]2CC[C@@H](C1)N2 (single isomer, unassigned) [Cpd 103, (1SR,5RS)-3-[3-(1H-tetrazol-5-yl)-thioxanthen-9-ylidene]-8-aza-bicyclo[3.2.1]octane]				49.6 nM	10.1 nM	329 nM
O=C(c1ccc2c(c1)Oc1ccccc1C2=C1CC2CCC(C1)N2)N1CCCC1 [Cpd 6, [9-(8-Aza-bicyclo[3.2.1]oct-3-ylidene)-9H-xanthen-3-yl]-pyrrolidin-1-yl-methanone]				59 nM	7.4 nM	1400 nM
O=c1[nH]c(-c2ccc3c(c2)Oc2ccccc2C3=C2CC3CCC(C2)N3)no1 [Cpd 4, 3-[9-(8-Aza-bicyclo[3.2.1]oct-3-ylidene)-9H-xanthen-3-yl]-4H-[1,2,4]oxadiazol-5-one]				128 nM	6.78 nM	768 nM
O=C(NC(CO)Cc1ccccc1)c1ccc2c(c1)Oc1ccccc1C2=C1CC2CCC(C1)N2 (single isomer, unassigned) [Cpd 15]				79 nM	27.5 nM	414 nM
c1ccc2c(c1)Oc1cc(-c3nnn[nH]3)ccc1C2=C1CC2CCC(C1)N2 [Cpd 80]	226 nM					
O=c1[nH]c(-c2ccc3c(c2)Oc2ccccc2C3=C2CC3CCC(C2)N3)ns1 [Cpd 101]	281 nM	7 nM	465 nM			
